Assays:
MBP–β1AR6P + mini-Gs = MBP–β1AR6P + mini-Gs (Meleagris gallopavo, UniProt P07700, C116L/C358A/D322K/DEL244-271/E130W/F327A/F338M/M44C/M90V/V103C); experiment: Radioligand saturation binding, receptor in nanodiscs with mini-Gs; design: species or system turkey (Meleagris gallopavo); conditions: read-out: apparent Kd
MBP–β1AR6P + βarr1 = MBP–β1AR6P + βarr1 (Meleagris gallopavo, UniProt P07700, C116L/C358A/D322K/DEL244-271/E130W/F327A/F338M/M44C/M90V/V103C); experiment: Radioligand saturation binding, receptor in nanodiscs with βarr1; design: species or system turkey (Meleagris gallopavo); conditions: read-out: apparent Kd
MBP–β1AR6P = MBP–β1AR6P (Meleagris gallopavo, UniProt P07700, C116L/C358A/D322K/DEL244-271/E130W/F327A/F338M/M44C/M90V/V103C); experiment: Radioligand saturation binding, receptor in nanodiscs; design: species or system turkey (Meleagris gallopavo); conditions: read-out: apparent Kd
β44–V2R = experiment: Arrestin recruitment bias from GloSensor cAMP; assay type: cell-based, turkey (Meleagris gallopavo); conditions: with reference to isoprenaline, equiactive comparison approach

Row | Kd (MBP–β1AR6P + mini-Gs) [nM] | Kd (MBP–β1AR6P + βarr1) [nM] | Kd (MBP–β1AR6P) [nM] | SMILES | bias factor (arrestin recruitment bias) (β44–V2R)
1 | 1.5 | 6 | 6 | CCCc1ccccc1OCC(O)CNC(C)C (stereo not shown) [[^3H]DHA, tritiated dihydroalprenolol] | 
2 |  |  |  | COc1ccc(CC(C)NCC(O)c2ccc(O)c(NC=O)c2)cc1 (stereo not shown) [formoterol] | 2.3 ± 0.4

From publication PMC7115876 (Nature, 2020)
